Laboratory results taken from US20130324556A1, “Protease Activated Receptor 2 (PAR2) Antagonists” (priority 2011, published 2013).
Where a name gives a salt, the structure may show the parent alone. Read-outs that look alike come from different tables or passages of the source.

Biological target: T1, human PAR2 receptor (Homo sapiens, UniProt P55085)
T1 construct: expressed in transfected cells; host or cells: 1321N1 cells
T1 sequence (P55085 26-397): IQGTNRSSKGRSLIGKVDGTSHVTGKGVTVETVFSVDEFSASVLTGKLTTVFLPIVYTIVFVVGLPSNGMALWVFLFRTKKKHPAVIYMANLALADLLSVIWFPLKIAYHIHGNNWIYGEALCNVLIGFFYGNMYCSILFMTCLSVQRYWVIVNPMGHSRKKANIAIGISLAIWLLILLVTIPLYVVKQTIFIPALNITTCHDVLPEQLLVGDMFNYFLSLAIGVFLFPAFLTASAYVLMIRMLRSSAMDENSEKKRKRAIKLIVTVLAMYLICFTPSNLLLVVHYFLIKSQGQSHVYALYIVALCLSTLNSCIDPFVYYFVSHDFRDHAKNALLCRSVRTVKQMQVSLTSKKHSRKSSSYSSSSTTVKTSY
Assay: PAR2 antagonist activity, calcium flux FLIPR assay (trypsin challenge)
Type: cell-based
Experimental: The PAR2 receptor couples through the Gq signaling pathway and results in activation of calcium mobilization. The functional activity of test compounds was routinely tested by measuring the ability of compounds to antagonize PAR2 (trypsin challenge) activity in a dose dependent manner, in 1321N1 cells transfected with the human PAR2 receptor, using a calcium flux Fluorescent Imaging Plate Reader FLIPR assay.
Briefly, test compounds were dissolved in DMSO to a concentration of 20 mM and stored in matrix screenmate racks. […] The compounds were then transferred to 384-well assay plates ready for use. […] The assay buffer used was HBSS buffer supplemented with 20 mM HEPES and 0.1% BSA (protease free), pH7.4. The loading/wash buffers were the same as the assay buffer.
Sub-cultivations were performed every 2-3 d. […] After washing, the cells were loaded with Fluo-4 AM dye (Molecular probes) at 2 μM containing 0.48 μg/mL pluronic acid for 60 min at 37° C. under 5% CO2.
A combined agonist/antagonist protocol was used to measure changes in intracellular calcium concentration. Compound (antagonist) was added to the cell plate using a Fluorometric Imaging Plate Reader (FLIPR) (Molecular Devices, Sunnyvale, Calif., USA). Basal fluorescence was recorded every second for 10 seconds prior to compound addition (10 μl) and fluorescence recorded every second for 1 min then every 6 seconds for a further 1 min. Trypsin (EC50 concentration) was then added using the FLIPR and fluorescence recorded as described above. Curve-fitting and parameter estimation were carried out using GraphPad Prism 4.0 (GraphPad Software Inc., San Diego, Calif.).

[1] = 1321N1 cells transfected with the human PAR2 receptor, trypsin (EC50 concentration) challenge, calcium flux FLIPR, read-out: PAR2 IC50

Structure (SMILES) | IC50 [1] [µM] | IC50 [µM]
NCc1ccc(CNC(=O)N2CCC(Cc3ccccc3)CC2)cc1F [Example 35, N-{[4-(Aminomethyl)-3-fluorophenyl]methyl}-4-benzylpiperidine-1-carboxamide] | < 5 | –
N=C(N)c1ccc(CNC(=O)N2CCC(Cc3ccccc3)CC2)cc1 [Example 36, 4-Benzyl-N-[(4-carbamimidoylphenyl)methyl]piperidine-1-carboxamide] | < 5 | –
CNC(=N)c1ccc(CNC(=O)N2CCC(Cc3ccccc3)CC2)cc1 [Example 37, 2,2,2-Trifluoroacetic acid; 4-benzyl-N-{[4-(N-methylcarbamimidoyl)phen-yl]methyl} piperidine-1-carboxamide] | 20 to 50 | –
CN(C)C(=N)c1ccc(CNC(=O)N2CCC(Cc3ccccc3)CC2)cc1 [Example 38, 2,2,2-Trifluoroacetic acid; 4-benzyl-N-{[4-(N,N-dimethylcar-bamimidoyl)phen-yl]methyl} piperidine-1-carboxamide] | 5 to 20 | –
O=C(NCc1ccc(C2=NCCN2)cc1)N1CCC(Cc2ccccc2)CC1 [Example 39, 4-Benzyl-N-{[4-(4,5-dihydro-1H-imidazol-2-yl)phenyl]methyl}piperidine-1-carboxamide] | 20 to 50 | –
N=C(N)c1ccc(CNC(=O)N2CCC(Cc3ccncc3)CC2)cc1 [Example 40, N-[(4-Carbamimidoylphen-yl)methyl]-4-(pyridin-4-ylmethyl)piperi-dine-1-carboxamide] | < 5 | –
N=C(N)c1ccc(CNC(=O)N2CCC(c3ccccc3)C2)cc1 (stereo not shown) [Example 41, N-[(4-Carbamimidoylphen-yl)methyl]-3-phenylpyrrolidine-1-carboxamide hydrochloride] | 5 to 20 | –
N=C(N)c1ccc(CNC(=O)N2CCN(Cc3ccccc3)CC2)cc1 [Example 42, 4-Benzyl-N-[(4-carbamimidoylphenyl)meth-yl]piperazine-1-carboxamide dihydrochloride] | < 5 | –
CN(Cc1ccc(C(=N)N)cc1)C(=O)N1CCC(Cc2ccccc2)CC1 [Example 43, 4-Benzyl-N-[(4-carbamimidoylphenyl)methyl]-N-methylpiperidine-1-carboxamide hydrochloride] | 5 to 20 | –
N=C(N)c1ccc(CNC(=O)C2CCN(Cc3ccccc3)CC2)cc1 [Example 44, 1-Benzyl-N-[(4-carbamimidoylphenyl)meth-yl]piperidine-4-carboxamide dihydrochloride] | 5 to 20 | –
N=C(N)c1ccc(CNC(=O)N2CCC(Cc3ccccc3)CC2)cc1F [Example 45, 4-Benzyl-N-[(4-carbamimidoyl-3-fluorophenyl)meth-yl]piperidine-1-carboxamide hydrochloride] | < 5 | –
N=C(N)c1ccc(CNC(=O)N2CCC(Cc3cccc(O)c3)CC2)cc1 [Example 47, N-[(4-Carbamimidoylphen-yl)methyl]-4-[(3-hydroxyphenyl)meth-yl]piperidine-1-carboxamide hydrochloride] | < 5 | –
N=C(N)c1ccc(CNC(=O)N2CCC(Cc3ccccc3)CC2)cn1 [Example 50, 4-Benzyl-N-[(6-carbam-imidoylpyridin-3-yl)methyl]piperidine-1-carboxamide hydrochloride] | < 5 | –
O=C(NCc1ccc(-c2ncc[nH]2)cc1)N1CCC(Cc2ccccc2)CC1 [Example 51, 4-Benzyl-N-{[4-(1H-imidazol-2-yl)phenyl]methyl}piperidine-1-carboxamide] | 20 to 50 | –
O=C(NCc1ccc2nc[nH]c2c1)N1CCC(Cc2ccccc2)CC1 [Example 52, N-(1H-1,3-Benzodiazol-6-ylmethyl)-4-benzylpiperidine-1-carboxamide] | 5 to 20 | –
O=C(NCc1cc2cnccc2[nH]1)N1CCC(Cc2ccccc2)CC1 [Example 53, 4-Benzyl-N-{1H-pyrrolo[3,2-c]pyridin-2-ylmethyl}piperidine-1-carboxamide] | 20 to 50 | –

Structure (SMILES) | IC50 [1] [µM] | IC50 [µM]
Cn1cnc2ccc(CNC(=O)N3CCC(Cc4ccccc4)CC3)cc21 [Example 54, 4-Benzyl-N-[(1-methyl-1H-1,3-benzodiazol-6-yl)methyl]piperidine-1-carboxamide] | 50 to 100 | –
O=C(NCc1ccc2nc[nH]c2c1)N1CCC(Oc2ccc(F)cc2)CC1 [Example 55, N-(1H-1,3-Benzodiazol-6-ylmethyl)-4-(4-fluorophenoxy)piperidine-1-carboxamide] | 20 to 50 | –
COc1ccc(CC2CCN(C(=O)NCc3ccc4nc[nH]c4c3)CC2)cc1 [Example 56, N-(1H-1,3-Benzodiazol-6-ylmethyl)-4-[(4-methoxyphenyl)methyl] piperidine-1-carboxamide] | 20 to 50 | –
O=C(NCc1ccc2nc[nH]c2c1)N1CCC(Cc2ccncc2)CC1 [Example 57, N-(1H-1,3-Benzodiazol-6-ylmethyl)-4-(pyridin-4-ylmethyl)piperidine-1-carboxamide] | 20 to 50 | –
O=C(NCc1ccc2nc[nH]c2c1)N1CCC(Nc2ccc(F)cc2)CC1 [Example 58, N-(1H-1,3-Benzodiazol-6-ylmethyl)-4-[(4-fluorophenyl)amino]piperidine-1-carboxamide] | – | 20 to 50
O=C(NCc1ccc2nc[nH]c2c1)N1CCC(c2ccccc2)C1 (stereo not shown) [Example 59, 2,2,2-Trifluoroacetic acid; N-(1H-1,3-benzodiazol-5-ylmethyl)-3-phenylpyrrolidine-1-carboxamide] | 5 to 20 | –
O=C(NCc1ccc2nc[nH]c2c1)N1CCC(Cc2ccccc2)C1 (stereo not shown) [Example 60, 2,2,2-Trifluoroacetic acid; N-(1H-1,3-benzodiazol-5-ylmethyl)-3-benzylpyrrolidine-1-carboxamide] | 5 to 20 | –
O=C(NCc1ccc2nn[nH]c2c1)N1CCC(Cc2ccccc2)CC1 [Example 61, N-(1H-1,2,3-Benzotriazol-6-ylmethyl)-4-benzylpiperidine-1-carboxamide] | 50 to 100 | –
Nc1nc2ccc(CNC(=O)N3CCC(Cc4ccccc4)CC3)cc2[nH]1 [Example 62, N-[(2-Amino-1H-1,3-benzodiazol-6-yl)methyl]-4-benzylpiperidine-1-carboxamide] | 5 to 20 | –
N=C(N)Nc1ccc(CNC(=O)N2CCC(Cc3ccccc3)CC2)cc1 [Example 63, 2,2,2-Trifluoroacetic acid; 4-benzyl-N-[(4-carbamimidamidophenyl)methyl]piperidine-1-carboxamide] | 5 to 20 | –
O=C(NCc1ccc2c(c1)CNC2)N1CCC(Cc2ccccc2)CC1 [Example 64, 4-Benzyl-N-(2,3-dihydro-1H-isoindol-5-ylmeth-yl)piperidine-1-carboxamide] | 5 to 20 | –
O=C(NCc1ccc2c(c1)CNC2)N1CCC(Cc2ccncc2)CC1 [Example 65, N-(2,3-Dihydro-1H-isoindol-5-ylmethyl)-4-(pyridin-4-ylmethyl)piperidine-1-carboxamide dihydrochloride] | 50 to 100 | –
O=C(NCc1ccc2c(c1)CNC2)N1CCC(Oc2ccc(F)cc2)CC1 [Example 66, N-(2,3-Dihydro-1H-isoindol-5-ylmethyl)-4-(4-fluorophenoxy) piperidine-1-carboxamide hydrochloride] | 20 to 50 | –
NCc1cccc(CNC(=O)N2CCC(Cc3ccccc3)CC2)c1 [Example 67, N-{[3-(Aminometh-yl)phen-yl]methyl}-4-benzylpiperidine-1-carboxamide] | 50 to 100 | –
NCCCCCNC(=O)N1CCC(Cc2ccccc2)CC1 [Example 68, N-(5-Aminopentyl)-4-benzylpiperidine-1-carboxamide] | 20 to 50 | –
